Measured values published in patent US20260198495A1, “BINARY INSECTICIDE COMPOSITION AND USE THEREOF” (SHENYANG SINOCHEM AGROCHEMICALS R & D CO., LTD., priority 2022, published 2026).

Columns and labels:
Type in all cases: in vivo
[1] = system: 3rd-instar larvae of Yponomeuta evonymallus (Linnaeus); experiment: Synergism screening (Bliss) of I-72 + pyrethroid insecticides, Example 37, Table 37; conditions: single pesticide, leaf dipping, 72 hours
Method: Test target: 3rd-instar larvae of Yponomeuta evonymallus (Linnaeus).
(§1) Preparation of the pesticide solution: according to different test requirements, the test samples were accurately weighed respectively with an electronic analytical balance. The technical pesticides were dissolved in acetone, and then diluted with 0.1% Tween 80 water into a series of pesticide solutions with a certain concentration gradient according to the experimental design dosage.
(§2) Experimental method: Firstly, Hylotelephium spectabile leaves were selected and dipped into the prepared pesticide solutions for 10 s in the order from low dosage to high dosage according to the experimental design. After natural air-drying in the shade, they were placed in a 9-cm-diameter Petri dish with filter paper, and uniform and healthy test insects were introduced, with 10 insects for each treatment and 3 replicates for each treatment. In addition, a blank control (CK) was set up.
(§3) The treated test materials were placed in an observation room, and the temperature, humidity and illumination of the observation room could be adjusted as needed. The number of dead and alive insects was investigated 72 hours later, and the corrected mortality rate was calculated using the Abbott's formula.
(§4) The synergism of the mixture was evaluated by the Bliss method. According to the concept of independent joint action he proposed, Bliss believes that the theoretical mortality rate P when insecticides are used in combination can be calculated by the following formula: […]
(§5) Pm is the measured mortality rate (%) of the target when the first active ingredient is at a concentration of m; and Pn is the measured mortality rate (%) of the target when the second active ingredient is used at a concentration of n.
(§6) If the actual mortality rate of the target after the two active ingredients are mixed at a certain concentration is greater than theoretical mortality rate P, it is determined that the two active ingredients have a synergistic effect when used in combination at the set concentration, and otherwise, they have an antagonistic effect.

[2] = system: 2nd-instar larvae of Plutella xylostella; experiment: whole plant or invertebrate; conditions: for Measured mortality rate: single pesticide, 72 hours; for mortality at 0.025 µg/mL / mortality at 0.5 µg/mL / mortality at 10 µg/mL / mortality at 0.01 µg/mL / mortality at 25 µg/mL: Plutella xylostella, 72 h, read-out: Measured mortality rate
Method: (§7) Test target: 2nd-instar larvae of Plutella xylostella.
as §1
as §2, with “first, cabbage” for “Firstly, Hylotelephium spectabile”, “in” for “into”, “solution” for “solutions”
as §3, §4, §5, §6

Aphis craccivora nymphs = experiment: Synergism screening (Bliss) of I-72 + pyrethroid insecticides, Example 38, Table 38; conditions: for mortality at 0.3 µg/mL / mortality at 1 µg/mL / mortality at 3 µg/mL / mortality at 0.15 µg/mL / mortality at 2 µg/mL: Aphis craccivora, in Vicia faba, 48 h; for mortality at 0.3 µg/mL: read-out: Measured mortality rate (%), single pesticide, concentration 0.3 mg/L, broad bean seedling spraying; for mortality at 1 µg/mL: read-out: Measured mortality rate (%), single pesticide, concentration 1 mg/L, broad bean seedling spraying; for mortality at 3 µg/mL: read-out: Measured mortality rate (%), single pesticide, concentration 3 mg/L, broad bean seedling spraying; for mortality at 0.15 µg/mL: read-out: Measured mortality rate (%), single pesticide, concentration 0.15 mg/L, broad bean seedling spraying; for mortality at 2 µg/mL: read-out: Measured mortality rate (%), single pesticide, concentration 2 mg/L, broad bean seedling spraying; for Measured mortality rate (%): single pesticide, broad bean seedling spraying, 48 hours
Method: Test target: Aphis craccivora nymphs, a sensitive strain reared indoors.
as §1
Experimental method: first, broad bean seedlings with uniform and consistent Aphis craccivora were selected, with about 30-40 insects on each seedling. Then, they were evenly sprayed with the pesticide solution in the order from low dosage to high dosage according to the experimental design, with 1.5 mL of the solution for each leaf and 3 replicates for each treatment. In addition, a blank control (CK) was set up.
as §3, with “48” for “72”
(§8) The synergism of the mixture was evaluated by adopting the Bliss method, as in Example 5.

[3] = system: 2nd-instar larvae of Plutella xylostella; experiment: Synergism screening (Bliss) of I-72 + insect attractants and insecticides, Example 49, Table 49; conditions: for Measured mortality rate: single pesticide, 72 hours
Method: as §7, §1
as §2, with “first, cabbage” for “Firstly, Hylotelephium spectabile”, “in” for “into”, “solution” for “solutions”, “CK” for “(CK)”
as §3, §8

[4] = Plutella xylostella, 72 h, read-out: Measured mortality rate

With CC(C)[C@H](C(=O)O[C@H](C#N)c1cccc(Oc2ccccc2)c1)c1ccc(Cl)cc1 [Esfenvalerate] the “Measured mortality rate (%)” value ([1]; concentration 0.5 mg/L) was 9.4%, the “Measured mortality rate (%)” value ([1]; concentration 1 mg/L) was 13.8% and the “Measured mortality rate (%)” value ([1]; concentration 5 mg/L) was 40.0%.
For CC1(C)[C@H](C(=O)O[C@H](C#N)c2cccc(Oc3ccccc3)c2)[C@@H]1/C=C(\Cl)C(F)(F)F [Gamma-cyhalothrin], the “Measured mortality rate (%)” value ([1]; concentration 0.1 mg/L) was 6.9% and the “Measured mortality rate (%)” value ([1]; concentration 5 mg/L) was 48.3%.
Work on O=C(NC(=O)c1ccccc1Cl)Nc1ccc(Cl)cc1 [Chlorbenzuron] yielded a Measured mortality rate ([2]; 0.01 mg/L) of 6.5%, a Measured mortality rate ([2]; 0.5 mg/L) of 14.8% and a Measured mortality rate ([2]; 25 mg/L) of 25.8%.
CC1(C)[C@H](C(=O)O[C@H](C#N)c2cccc(Oc3ccccc3)c2)[C@@H]1C=C(Br)Br [Deltamethrin] showed a mortality at 0.3 µg/mL (Aphis craccivora nymphs) of 17.3%, a mortality at 1 µg/mL (Aphis craccivora nymphs) of 28% and a mortality at 3 µg/mL (Aphis craccivora nymphs) of 61.4%.
In the case of CC1(C)C(C=C(Cl)Cl)C1C(=O)OC(C#N)c1ccc(F)c(Oc2ccccc2)c1 (stereo not shown) [Cyfluthrin], the “Measured mortality rate (%)” value ([1]; concentration 0.5 mg/L) is reported as 10.0%, the “Measured mortality rate (%)” value ([1]; concentration 1 mg/L) is reported as 18.8% and the “Measured mortality rate (%)” value ([1]; concentration 5 mg/L) is reported as 48.4%.
With CC(C)c1cc(Oc2ccccc2)cc(C(C)C)c1NC(=S)NC(C)(C)C [Diafenthiuron] the mortality at 0.025 µg/mL [2] was 6.3%, the mortality at 0.5 µg/mL [2] was 13.3% and the mortality at 10 µg/mL [2] was 21.4%.
CCOc1ccc(C(C)(C)COCc2cccc(Oc3ccccc3)c2)cc1 [Etofenprox] was tested, and the mortality at 0.15 µg/mL (Aphis craccivora nymphs) was 14% and the mortality at 2 µg/mL (Aphis craccivora nymphs) was 49.5%.
For O=C(NC(=O)c1c(F)cccc1F)Nc1cc(Cl)c(OC(F)(F)C(F)F)c(Cl)c1 [Hexaflumuron], the mortality at 0.025 µg/mL [2] was 6.7%, the mortality at 0.5 µg/mL [2] was 13.8% and the mortality at 10 µg/mL [2] was 22.6%.
CC1(C)[C@H](C=C(Cl)Cl)[C@H]1C(=O)O[C@@H](C#N)c1cccc(Oc2ccccc2)c1 [Beta-cypermethrin] was tested, and the “Measured mortality rate (%)” value (Aphis craccivora nymphs; concentration 0.3 mg/L) was 16.1% and the “Measured mortality rate (%)” value (Aphis craccivora nymphs; concentration 1 mg/L) was 49.7%.
Work on CC12CCC(CC1=O)C2(C)C (stereo not shown) [Camphor] yielded a mortality at 0.002 µg/mL [3, 4] of 7.4%, a mortality at 0.1 µg/mL [3, 4] of 9.7% and a mortality at 5 µg/mL [3, 4] of 13.8%.
O=C(NC(=O)c1c(F)cccc1F)Nc1ccc(Cl)cc1 [Diflubenzuron] gave a mortality at 0.01 µg/mL [2] of 11.1%, a mortality at 0.5 µg/mL [2] of 12.9% and a mortality at 25 µg/mL [2] of 31%.
Cc1c(COC(=O)[C@@H]2[C@H](/C=C(\Cl)C(F)(F)F)C2(C)C)cccc1-c1ccccc1 (racemic) [Bifenthrin] was tested, and the mortality at 0.15 µg/mL (Aphis craccivora nymphs) was 10%, the mortality at 2 µg/mL (Aphis craccivora nymphs) was 49.1% and the mortality at 3 µg/mL (Aphis craccivora nymphs) was 62%.
In the case of O=C(NC(=O)c1c(F)cccc1F)Nc1cc(Cl)c(OC(F)(F)C(F)C(F)(F)F)cc1Cl (stereo not shown) [Lufenuron], the mortality at 0.025 µg/mL [2] is reported as 7.4%, the mortality at 0.5 µg/mL [2] is reported as 12.5% and the mortality at 10 µg/mL [2] is reported as 20.7%.
With CC1(C)C(C=C(Cl)Cl)C1C(=O)OCc1cccc(Oc2ccccc2)c1 (stereo not shown) [Permethrin] the mortality at 0.3 µg/mL (Aphis craccivora nymphs) was 12%, the mortality at 1 µg/mL (Aphis craccivora nymphs) was 25.3% and the mortality at 3 µg/mL (Aphis craccivora nymphs) was 64.8%.
Work on N#Cc1nn(-c2c(Cl)cc(C(F)(F)F)cc2Cl)c(N)c1[S+]([O-])C(F)(F)F (stereo not shown) [Fipronil] yielded a mortality at 0.01 µg/mL [3, 4] of 6.7%, a mortality at 0.1 µg/mL [3, 4] of 16.7% and a mortality at 1 µg/mL [3, 4] of 27.6%.
In the case of CC1(C)C(C=C(Cl)Cl)C1C(=O)OC(C#N)c1cccc(Oc2ccccc2)c1 (stereo not shown) [Zeta-cypermethrin], the “Measured mortality rate (%)” value (Aphis craccivora nymphs; concentration 0.15 mg/L) is reported as 17.1% and the “Measured mortality rate (%)” value (Aphis craccivora nymphs; concentration 2 mg/L) is reported as 64.5%.
For Pyrethrin, the “Measured mortality rate (%)” value (Aphis craccivora nymphs; concentration 0.3 mg/L) was 15.6%, the “Measured mortality rate (%)” value (Aphis craccivora nymphs; concentration 1 mg/L) was 25.6% and the “Measured mortality rate (%)” value (Aphis craccivora nymphs; concentration 3 mg/L) was 63.0%.
With CC1(C)C(C(=O)OC(C#N)c2cccc(Oc3ccccc3)c2)C1(C)C (stereo not shown) [Fenpropathrin] the “Measured mortality rate (%)” value ([1]; concentration 0.5 mg/L) was 13.3%, the “Measured mortality rate (%)” value ([1]; concentration 1 mg/L) was 22.6% and the “Measured mortality rate (%)” value ([1]; concentration 5 mg/L) was 40.7%.
In the case of CC1(C)C(C=C(Cl)Cl)C1C(=O)OC(C#N)c1ccc(F)c(Oc2ccccc2)c1 (stereo not drawn) [Beta-cyfluthrin], the “Measured mortality rate (%)” value ([1]; concentration 0.5 mg/L) is reported as 12.9%, the “Measured mortality rate (%)” value ([1]; concentration 1 mg/L) is reported as 21.4% and the “Measured mortality rate (%)” value ([1]; concentration 5 mg/L) is reported as 51.6%.
With CC1(C)C(C=C(Cl)Cl)C1C(=O)OC(C#N)c1cccc(Oc2ccccc2)c1 (stereo not drawn) [Alpha-cypermethrin] the “Measured mortality rate (%)” value ([1]; concentration 0.5 mg/L) was 9.1%, the “Measured mortality rate (%)” value ([1]; concentration 1 mg/L) was 19.4% and the “Measured mortality rate (%)” value ([1]; concentration 5 mg/L) was 43.8%.
CON=CNC(=O)c1ccc(C2=NOC(c3cc(Cl)cc(Cl)c3)(C(F)(F)F)C2)cc1C (stereo not shown) [Fluxametamide] gave a Measured mortality rate ([3]; 0.01 mg/L) of 6.9%, a Measured mortality rate ([3]; 0.1 mg/L) of 48.4% and a Measured mortality rate ([3]; 1 mg/L) of 75.9%.
CC(C)C(C(=O)OC(C#N)c1cccc(Oc2ccccc2)c1)c1ccc(Cl)cc1 (stereo not shown) [Fenvalerate] was tested, and the mortality at 0.3 µg/mL (Aphis craccivora nymphs) was 14.7%, the mortality at 1 µg/mL (Aphis craccivora nymphs) was 29% and the mortality at 3 µg/mL (Aphis craccivora nymphs) was 51.1%.
O=C(NC(=O)c1c(F)cccc1F)Nc1ccc(Oc2ccc(C(F)(F)F)cc2Cl)cc1F [Flufenoxuron] was tested, and the mortality at 0.01 µg/mL [2] was 9.7%, the mortality at 0.5 µg/mL [2] was 10.7% and the mortality at 25 µg/mL [2] was 27.6%.
For CC1(C)[C@H](C=C(Cl)Cl)[C@H]1C(=O)O[C@H](C#N)c1cccc(Oc2ccccc2)c1 [Theta-cypermethrin], the “Measured mortality rate (%)” value ([1]; concentration 0.5 mg/L) was 10.3%, the “Measured mortality rate (%)” value ([1]; concentration 1 mg/L) was 16.7% and the “Measured mortality rate (%)” value ([1]; concentration 5 mg/L) was 46.4%.
For O=C(NC(=O)c1ccccc1Cl)Nc1ccc(OC(F)(F)F)cc1 [Triflumuron], the mortality at 0.025 µg/mL [2] was 6.9%, the mortality at 0.5 µg/mL [2] was 13.8% and the mortality at 10 µg/mL [2] was 17.2%.
With CC1(C)[C@H](C(=O)O[C@H](C#N)c2cccc(Oc3ccccc3)c2)[C@@H]1/C=C(\Cl)C(F)(F)F (racemic) [Lambda-cyhalothrin] the “Measured mortality rate (%)” value ([1]; concentration 0.25 mg/L) was 16.1%, the “Measured mortality rate (%)” value ([1]; concentration 2 mg/L) was 39.3% and the “Measured mortality rate (%)” value ([1]; concentration 5 mg/L) was 53.3%.
For CCCCCCCC/C=C\CCCCCCCCCCCCC [Muscalure], the Measured mortality rate ([3]; 0.002 mg/L) was 3.1%, the Measured mortality rate ([3]; 0.1 mg/L) was 10.0% and the Measured mortality rate ([3]; 5 mg/L) was 20.7%.
O=C(NC(=O)c1c(F)cccc1F)Nc1cc(Cl)c(Oc2ncc(C(F)(F)F)cc2Cl)c(Cl)c1 [Chlorfluazuron] gave a mortality at 0.025 µg/mL [2] of 3.4%, a mortality at 0.5 µg/mL [2] of 10.3% and a mortality at 10 µg/mL [2] of 24.1%.
Work on FC(F)(F)c1ccc(OCCCOc2c(Cl)cc(OCC=C(Cl)Cl)cc2Cl)nc1 [Pyridalyl] yielded a mortality at 0.005 µg/mL [3, 4] of 8%, a mortality at 0.1 µg/mL [3, 4] of 12.9% and a mortality at 2 µg/mL [3, 4] of 24.1%.
CC1(C)C(C=C(Cl)Cl)C1C(=O)OC(C#N)c1cccc(Oc2ccccc2)c1 (stereo not shown) [Cypermethrin] showed a mortality at 0.15 µg/mL (Aphis craccivora nymphs) of 13.3% and a mortality at 2 µg/mL (Aphis craccivora nymphs) of 60.9%.
CCN1OCC(NC(=O)c2ccc(C3=NOC(c4cc(Cl)c(F)c(Cl)c4)(C(F)(F)F)C3)cc2C)C1=O (stereo not shown) [Isocycloseram] gave a Measured mortality rate ([3]; 0.01 mg/L) of 17.9%, a Measured mortality rate ([3]; 0.1 mg/L) of 71.9% and a Measured mortality rate ([3]; 1 mg/L) of 80.0%.
